For this data set, the system named is FATZO mice (NASH). As to the kind of experiment: FATZO mouse western diet + fructose NASH model (Example 6): body and liver weight, liver histology, NAS, fibrosis, Sirius Red. In kind it is in vivo. The note with it: WDF-fed FATZO mice. The text has this:
In one example, the effects of […] and related amino acid compositions in the obesity, metabolism-driven non-alcoholic steatohepatitis (NASH) in FATZO mouse model was examined.
NASH was induced in 60 male FATZO mice by a western diet (Research Diet #D12079B; fat 40% kcal, protein 17% kcal, carbohydrate 43% kcal) supplemented with 5% fructose in the drinking water (WDF) during a 16 week induction phase. Diets and water were available ad libitum. Littermate control male FATZO mice fed with a control diet (n=6, Purina #5008; fat 17% kcal, protein 27% kcal, carbohydrate 56% kcal) and sterile water were set up for control purpose. Mice were housed in plastic cages with microisolator. Sterilized bedding was replaced once a week. Mice were housed three per cage and maintained on a twelve hour light cycle throughout study duration. Room temperature was monitored daily and maintained at 22-25° C. Body weight was recorded every week during the induction phase.
Following 16 weeks diet induction, 6 mice remained on control diet (group 1, Control) while 60 induced mice were randomized on body weight and plasma glucose (fed) for assignment to the following treatments. FATZO mice were administered with test articles starting at 16 weeks post western diet NASH induction for 4 weeks. Test articles were administered by oral gavage. Animals were euthanized at 20 weeks post western diet NASH induction, and tissues were harvested for analysis.
[…], […]+G, LRQNAC, and OCA (Advanced ChemBlocks, Inc.), incipient, and water for irrigation were provided by Axcella Health, Inc. 0.5% Methylcellulose was provided by CrownBio, Inc. Dosing solutions were prepared according to Appendix 1. […] Obeticholic acid (OCA) was suspended in 0.5% methylcellulose in water for irrigation. All test articles were stored refrigerated. TA compounds were provided in frozen powder form by the sponsor. Dosing was continued for 4 weeks.
Leucine dosages of […]+G and LRQNAC were matched to that of […].
[…], […]+G, LRQNAC, OCA and Vehicle were administered by oral gavage at a volume of 10 mL/kg throughout the study. Dosages were calculated by daily body weight. […], […]+G, LRQNAC, and Vehicle were administered twice per day (BID), while OCA was administered once a day (QD) in the morning. Mice receiving OCA once per day (QD), and one vehicle QD. Doses were administered by oral gavage at 0700 and 1800 by oral gavage for 4 weeks.
The viability, clinical signs and behavior were monitored daily. Body weight was recorded daily during the dosing period. Blood samples were collected weekly in the AM (0700) via tail clip for glucose measurement (StatStrip glucometer).
Animals were anesthetized with CO2 inhalation and exsanguinated via cardiac puncture for euthanasia. Terminal blood samples (K2EDTA) were obtained by cardiac puncture in anesthetized animals at termination. Samples were provided frozen to Axcella Health. Organ weights (total liver, gonadal fat pads) were recorded. Pancreas, and small intestine and gonadal fat pads were fixed in 10% Buffered Formalin and prepared as directed in protocol. A section of small intestine, gonadal fat pad and liver were also snap frozen in liquid nitrogen and shipped to the sponsor.
The liver tissues were fixed in Bouin's solution at 4° C. for 24 hours followed by baths of standard concentrations of alcohol then xylene to prepare the tissues for paraffin embedding. After being embedded in paraffin and cooled, five-micron sections were cut and stained for routine H&E and Picric Sirius Red. A section of both right and left lobes of the livers were frozen in OCT for analysis of lipid content with Oil-Red-) staining. The Aperio whole slide digital imaging system (Scan Scope CS, Vista, Calif.) was used for imaging. All slides were imaged at 20×. The scan time ranged from 1.5 minutes to a maximum time of 2.25 minutes. […]

Where [1] appears, read: OCA oral gavage QD, 4 weeks, mean ± SEM.

Results on one compound are retold here after US20210275480A1, “COMPOSITIONS AND METHODS FOR THE REDUCTION OR TREATMENT OF FIBROSIS” (AXCELLA HEALTH INC., priority 2018, published 2021).

On to `CC[C@H]1[C@@H](O)[C@@H]2[C@H](CC[C@]3(C)[C@@H]([C@H](C)CCC(=O)O)CC[C@@H]23)[C@@]2(C)CC[C@@H](O)C[C@@H]12` [OCA, 6α-ethyl-chenodeoxycholic acid], for which, under setting [1], the “Fibrosis (liver fibrosis score)” value is on record as 0.67 ± 0.167, the “Liver Pathology: Inflammation” value is on record as 1.0 ± 0.0, the “Liver Pathology: NAS” value is 3.72 ± 0.147 and the “Sirius Red (collagen staining)” value came out at 1.59 ± 0.36. Further, the “Liver Pathology: Ballooning” value (OCA oral gavage QD, 4 weeks, score 0-2, mean ± SEM) is 0.94 ± 0.056. For the same compound, the “Liver Pathology: Steatosis” value (OCA oral gavage QD, 4 weeks, score 0-3, mean ± SEM) amounted to 1.78 ± 0.147. Also, the “Body weight change compared to baseline” value (4 weeks oral, LIVRQNAC 3000 mg/kg, LIVRQNAC+G 3885 mg/kg, LRQNAC 2469 mg/kg BID, OCA 30 mg/kg/day QD) was −3.9±1.5%. Besides, the “Liver weight (% body weight)” value (4 weeks, LIVRQNAC 3000 mg/kg, LIVRQNAC+G 3885 mg/kg, LRQNAC 2469 mg/kg, OCA 30 mg/kg/day) came to 6.81±0.2 % body weight.
